Reference: article PMC12142043, “Cell-based high-content approach for SARS-CoV-2 neutralization identifies unique monoclonal antibodies and PI3K pathway inhibitors” (Frontiers in Cell and Developmental Biology, 2025)

Tested on: SARS-CoV-2 (USA-WA1/2020) in Calu-3 cells
Assay type: cell-based
Settings: Calu-3, 48 h; for dsRNA signal, AU High: high dose (10 µM); for dsRNA signal, AU Low: low dose (100 nM)

Row | Molecule | dsRNA signal, AU High [AU] | dsRNA signal, AU Low [AU]
1 | CCCCCCCCCCCCCC(=O)O[C@@H]1[C@@H](C)[C@@]2(O)[C@@H](C=C(CO)C[C@]3(O)C(=O)C(C)=C[C@@H]23)[C@@H]2C(C)(C)[C@]12OC(C)=O | 6922.4 | 0.0
2 | 2-D08 | 21678.5 | 7689.9
3 | 6H05 | 9210.5 | 25435.6
4 | 10058-F4 | 21785.0 | 24031.2
5 | O=C(O)C(Cc1ccccc1[N+](=O)[O-])=NNc1nc(-c2ccc(Cl)c(Cl)c2)cs1 (mixture of isomers) [4EGI-1] | 27081.3 | 17726.3
6 | COC(=O)C1=C(C)NC(C)=C(C(=O)O[C@@H]2CCCN(Cc3ccccc3)C2)[C@@H]1c1cccc([N+](=O)[O-])c1.Cl (racemic) [Benidipine HCl] | 130.4 | 31078.1
7 | O=C(COc1ccc(Cl)cc1)NC1CCC(NC(=O)COc2ccc(Cl)cc2)CC1 (single isomer, unassigned) [ISRIB (trans-isomer)] | 6980.3 | 60689.2
8 | CC(=O)c1c(O)c(C)c(O)c2c1OC1=CC(=O)C(C(C)=O)C(=O)C12C (single isomer, unassigned; (+)) [(+)-Usniacin] | 3049.6 | 59009.6
9 | O=C1NC(=O)C(=Cc2ccc(-c3ccc(F)cc3)o2)S1 (stereo in doubt) [CAY10505] | 15375.8 | 16784.8
10 | BrC1C(Br)C(Br)C(Br)C(Br)C1Br (centres unmarked) [1,2,3,4,5,6-Hexabromocyclohexane] | 58.9 | 23091.7
11 | CCCCCCCCCCCC(=O)OC[C@H](CO)OC(=O)CCCCCCCCCCC [1,2-Dilauroyl-sn-glycerol] | 32229.3 | 52450.9
12 | OCC1OC(O)CC(O)C1O [2-Deoxy-D-glucose] | 5572.7 | 62378.7
13 | Cn1cnc(N)c2ncnc1-2 [3-Methyladenine] | 32357.3 | 26977.2
14 | Cc1c[nH]c2ccccc12 [3-Methylindole] | 0.0 | 1602.7
15 | O=C(CCl)c1c[nH]c2ccccc12 [3CAI] | 6736.4 | 43810.0
16 | O=C(O)c1ccc(N2C(=O)/C(=C\c3ccc(-c4ccc([N+](=O)[O-])cc4)o3)C=C2c2ccccc2)cc1 [4E1RCat] | 11534.6 | 17206.1
17 | Nc1ncnc2c1c(I)cn2[C@@H]1O[C@H](CO)[C@@H](O)[C@H]1O [5-Iodotubercidin] | 2639.0 | 20167.4
18 | O=c1cc(-c2ccccc2)oc2c(O)c(O)ccc12 [7,8-Dihydroxyflavone] | 9230.6 | 39399.4
19 | CCCCCCCC/C=C\CCCCCCCCCCCC(=O)O [13(Z)-Docosenoic Acid] | 4336.2 | 49926.0

Row | Molecule | dsRNA signal, AU High [AU] | dsRNA signal, AU Low [AU]
20 | Cc1[nH]nc2ccc(-c3cncc(OC[C@@H](N)Cc4ccccc4)c3)cc12 [A-674563] | 0.0 | 6156.4
21 | Cc1c(NC(=O)OC[C@@H]2COCCN2)cn2ncnc(Nc3ccc4c(cnn4Cc4cccc(F)c4)c3)c12 [AC480 (BMS-599626)] | 468.1 | 62401.2
22 | COCc1c(-c2ccc(NC(=O)Nc3cc(C(F)(F)F)ccc3F)c(F)c2)c2c(N)ncnn2c1CN1CCOCC1 [ACTB-1003] | 28009.9 | 9584.0
23 | N#C/C(=C/c1ccc(O)c(O)c1)C(=O)NCc1ccccc1 [AG-490] | 8748.3 | 4415.8
24 | CC(C)(C)c1cc(C=C(C#N)C#N)cc(Br)c1O [AG-1024] | 1211.9 | 44737.5
25 | COc1cc2ncnc(Nc3cccc(Cl)c3)c2cc1OC [AG-1478] | 1676.2 | 67129.9
26 | NC(=O)c1ncn([C@@H]2O[C@H](CO)[C@@H](O)[C@H]2O)c1N [AICAR] | 10649.1 | 34470.9
27 | c1ccc(-c2oc3ncnc(NC[C@@H]4CCCO4)c3c2-c2ccccc2)cc1 [AIM-100] | 17272.0 | 4414.3
28 | O=c1[nH]c2ccccc2n1C1CCN(Cc2ccc(-c3nc4cc5[nH]cnc5cc4nc3-c3ccccc3)cc2)CC1 [AKT inhibitor VIII] | 14379.0 | 47838.1
29 | O=C(Nc1ccccc1C(=O)NC1CCCCNC1=O)c1cc2ccccc2s1 (centres unmarked) [ANA 12] | 5083.5 | 20498.0
30 | c1cc(Nc2cc(C3CC3)[nH]n2)nc(Nc2ccc3nc[nH]c3c2)n1 [APY29] | 1195.6 | 15781.0
31 | COc1ccc(CNC(=O)Nc2ncc([N+](=O)[O-])s2)cc1 [AR-A014418] | 79.4 | 22152.5
32 | N#CC(c1ccnc(NCCc2cccnc2)n1)c1nc2ccccc2s1 (centres unmarked) [AS601245] | 18398.2 | 6237.2
33 | O=C1NC(=O)/C(=C\c2ccc3nccnc3c2)S1 [AS-605240] | 11785.5 | 49405.3
34 | COc1cc(N2CCC(N3CCN(C)CC3)CC2)ccc1Nc1ncnc(Nc2ccccc2S(=O)(=O)C(C)C)n1 [ASP3026] | 11916.3 | 27995.4
35 | CCN1CCN(Cc2ccc(NC(=O)Nc3ccc(Oc4cc(NC)ncn4)cc3)cc2C(F)(F)F)CC1 [AST 487] | 7505.2 | 5709.8
36 | Cl.O=C(NC1CCNCC1)c1[nH]ncc1NC(=O)c1c(Cl)cccc1Cl [AT7519 Hydrochloride] | 0.0 | 18031.2
37 | Clc1ccc(C2(c3ccc(-c4cn[nH]c4)cc3)CCNCC2)cc1 [AT7867] | 150.0 | 6554.9
